Literature values as cited in article PMC10011554, “BET inhibitor trotabresib in heavily pretreated patients with solid tumors and diffuse large B-cell lymphomas” (Nature Communications, 2023).

Key:
OCI-LY-19 (GCB DLBCL) = test system: OCI-LY-19 (GCB DLBCL); parameters: method as in Report CC-90010-Pharm-1018; conditions: OCI-LY-19, Experiment 1, ref Report CC-90010-Pharm-1018; read-out: absolute IC50, proliferation; cited from earlier work
KARPAS-422 (GCB DLBCL) = test system: KARPAS-422 (GCB DLBCL); parameters: method as in Report CC-90010-Pharm-1018; conditions: KARPAS-422, Experiment 1, ref Report CC-90010-Pharm-1018; read-out: absolute IC50, proliferation; cited from earlier work
three TNBC models = test system: three TNBC models; parameters: method as in Investigator's Brochure; conditions: ref Investigator's Brochure, read-out: overall mean IC50, colony formation; cited from earlier work
[1] = test system: BCRP, MRP2, OAT1, OAT3, OATP1B1, OATP1B3 and OCT2; parameters: method as in Investigator's Brochure; conditions: MRP2, OAT1, OAT3, OATP1B1, OATP1B3 and OCT2, ref Investigator's Brochure; cited from earlier work
[2] = parameters: method as in Investigator's Brochure; conditions: rats, IV, non-radiolabeled, ref Investigator's Brochure; cited from earlier work

Which results are given for `Cn1cc(-c2cc(S(C)(=O)=O)ccc2OCC2CC2)c2ccccc2c1=O` [trotabresib]?
IC50 (OCI-LY-19 (GCB DLBCL)): 220 nM; IC50 (KARPAS-422 (GCB DLBCL)): 320 nM; IC50 (three TNBC models): 110 ± 40 nM; transporter substrate status [1]: not a substrate; dose excreted intact in bile or urine, average [2]: 0.9 % of the dose
